Assay results published in US20240295544A1 (priority 2020, published 2024).

System: CMs

`CC(C)C[C@H](NC(=O)[C@H](Cc1ccccc1)NC(=O)c1cnccn1)B(O)O` [bortezomib] was tested, and the “fragmentation frequency and severity compared with SARS-CoV-2” value (human) was “much more infrequently and less severely than SARS-CoV-2” and the “induction of myofibril fragmentations in CMs” value (no virus, bortezomib only at high doses (1 uM and 10 uM tested), doxorubicin 20 nM and 200 nM (Table 1A)) was “induced myofibril fragmentations”.
